Source: PubChem BioAssay (NCI)
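Briefly, cells in 96-well plates were exposed to five compound concentrations for 48 h, and endpoints were estimated by linear interpolation. GI50 = concentration required for 50% inhibition of growth. TGI marks complete inhibition of growth.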

Legend:
Experiment in all cases: NCI tumour cell line growth inhibition, 48 h
SK-MEL-5 melanoma = system: SK-MEL-5 melanoma
SNB-19 CNS = system: SNB-19 CNS
NCI-H23 lung = system: NCI-H23 lung
HCT-15 colon = system: HCT-15 colon
SK-MEL-2 melanoma = system: SK-MEL-2 melanoma
KM12 colon = system: KM12 colon
SNB-75 CNS = system: SNB-75 CNS
UO-31 renal = system: UO-31 renal
U251 CNS = system: U251 CNS
MCF7 breast = system: MCF7 breast
SF-539 CNS = system: SF-539 CNS
MALME-3M melanoma = system: MALME-3M melanoma
MOLT-4 leukemia = system: MOLT-4 leukemia
SF-268 CNS = system: SF-268 CNS
HOP-62 NSCLC = system: HOP-62 NSCLC
OVCAR-5 ovarian = system: OVCAR-5 ovarian
RPMI-8226 leukemia = system: RPMI-8226 leukemia
PC-3 prostate = system: PC-3 prostate
COLO 205 colon = system: COLO 205 colon
MDA-MB-231 breast = system: MDA-MB-231 breast
M14 melanoma = system: M14 melanoma
NCI/ADR-RES ovarian = system: NCI/ADR-RES ovarian
HCC-2998 colon = system: HCC-2998 colon
CAKI-1 renal = system: CAKI-1 renal
A498 renal = system: A498 renal
ACHN renal = system: ACHN renal
DU-145 prostate = system: DU-145 prostate
MDA-MB-435 = system: MDA-MB-435
A549 NSCLC = system: A549 NSCLC
IGROV1 ovarian = system: IGROV1 ovarian
OVCAR-3 ovarian = system: OVCAR-3 ovarian
HOP-92 NSCLC = system: HOP-92 NSCLC
UACC-257 melanoma = system: UACC-257 melanoma
EKVX NSCLC = system: EKVX NSCLC
K-562 leukemia = system: K-562 leukemia
SK-OV-3 ovarian = system: SK-OV-3 ovarian
MDA-MB-468 breast = system: MDA-MB-468 breast
T-47D breast = system: T-47D breast
CCRF-CEM leukemia = system: CCRF-CEM leukemia
SW-620 colon = system: SW-620 colon
HT29 colon = system: HT29 colon
HS 578T breast = system: HS 578T breast
SF-295 CNS = system: SF-295 CNS
SN12C renal = system: SN12C renal
BT-549 breast = system: BT-549 breast
OVCAR-4 ovarian = system: OVCAR-4 ovarian
LOX IMVI melanoma = system: LOX IMVI melanoma
TK-10 renal = system: TK-10 renal
UACC-62 melanoma = system: UACC-62 melanoma
786-0 renal = system: 786-0 renal
HL-60(TB) leukemia = system: HL-60(TB) leukemia
RXF 393 renal = system: RXF 393 renal
NCI-H460 lung = system: NCI-H460 lung
OVCAR-8 ovarian = system: OVCAR-8 ovarian
NCI-H226 lung = system: NCI-H226 lung
NCI-H522 lung = system: NCI-H522 lung
SR leukemia = system: SR leukemia
SK-MEL-28 melanoma = system: SK-MEL-28 melanoma

Structure (SMILES): CCNCCCn1c2c(c3cc(OC)c(OC)cc3c1=O)C(=O)c1cc3c(nc1-2)OCO3
- GI50 (SK-MEL-5 melanoma): 0.921 µM
- TGI (SK-MEL-5 melanoma): 2.14 µM
- GI50 (SNB-19 CNS): 1.69 µM
- TGI (SNB-19 CNS): 17.5 µM
- GI50 (NCI-H23 lung): 0.324 µM
- TGI (NCI-H23 lung): 3.76 µM
- GI50 (HCT-15 colon): 1.14 µM
- TGI (HCT-15 colon): 2.54 µM
- GI50 (SK-MEL-2 melanoma): > 100 µM
- TGI (SK-MEL-2 melanoma): > 100 µM
- GI50 (KM12 colon): 10.4 µM
- TGI (KM12 colon): 23.8 µM
- GI50 (SNB-75 CNS): 0.495 µM
- TGI (SNB-75 CNS): 9.41 µM
- GI50 (UO-31 renal): 3.09 µM
- TGI (UO-31 renal): 16.3 µM
- GI50 (U251 CNS): 0.348 µM
- TGI (U251 CNS): 14.7 µM
- GI50 (MCF7 breast): 0.0754 µM
- TGI (MCF7 breast): 10.3 µM
- GI50 (SF-539 CNS): 0.675 µM
- TGI (SF-539 CNS): 4.1 µM
- GI50 (MALME-3M melanoma): 1.35 µM
- TGI (MALME-3M melanoma): 2.76 µM
- GI50 (MOLT-4 leukemia): 0.048 µM
- TGI (MOLT-4 leukemia): 2.13 µM
- GI50 (SF-268 CNS): 0.85 µM
- TGI (SF-268 CNS): 16.8 µM
- GI50 (HOP-62 NSCLC): 0.205 µM
- TGI (HOP-62 NSCLC): 10.2 µM
- GI50 (OVCAR-5 ovarian): 3.69 µM
- TGI (OVCAR-5 ovarian): 16.5 µM
- GI50 (RPMI-8226 leukemia): 0.641 µM
- TGI (RPMI-8226 leukemia): 2.97 µM
- GI50 (PC-3 prostate): 1.28 µM
- TGI (PC-3 prostate): 18.9 µM
- GI50 (COLO 205 colon): 3.07 µM
- TGI (COLO 205 colon): 19.6 µM
- GI50 (MDA-MB-231 breast): 1.91 µM
- TGI (MDA-MB-231 breast): 6.14 µM
- GI50 (M14 melanoma): 1.97 µM
- TGI (M14 melanoma): 12.3 µM
- GI50 (NCI/ADR-RES ovarian): 1.56 µM
- TGI (NCI/ADR-RES ovarian): 4.14 µM
- GI50 (HCC-2998 colon): 4.07 µM
- TGI (HCC-2998 colon): 18.9 µM
- GI50 (CAKI-1 renal): 0.946 µM
- TGI (CAKI-1 renal): 16.6 µM
- GI50 (A498 renal): 9.07 µM
- TGI (A498 renal): 23 µM
- GI50 (ACHN renal): 0.755 µM
- TGI (ACHN renal): 7.05 µM
- GI50 (DU-145 prostate): 0.548 µM
- TGI (DU-145 prostate): 12.5 µM
- GI50 (MDA-MB-435): 1.38 µM
- TGI (MDA-MB-435): 2.89 µM
- GI50 (A549 NSCLC): 1.22 µM
- TGI (A549 NSCLC): 18.4 µM
- GI50 (IGROV1 ovarian): 12.1 µM
- TGI (IGROV1 ovarian): 25.7 µM
- GI50 (OVCAR-3 ovarian): 11.9 µM
- TGI (OVCAR-3 ovarian): 24.7 µM
- GI50 (HOP-92 NSCLC): 7.73 µM
- TGI (HOP-92 NSCLC): 23.1 µM
- GI50 (UACC-257 melanoma): 13.4 µM
- TGI (UACC-257 melanoma): 27.7 µM
- GI50 (EKVX NSCLC): 5.26 µM
- TGI (EKVX NSCLC): 20 µM
- GI50 (K-562 leukemia): 0.483 µM
- TGI (K-562 leukemia): 2.75 µM
- GI50 (SK-OV-3 ovarian): 1.14 µM
- TGI (SK-OV-3 ovarian): 11.8 µM
- GI50 (MDA-MB-468 breast): 0.431 µM
- TGI (MDA-MB-468 breast): 2.51 µM
- GI50 (T-47D breast): 1.06 µM
- TGI (T-47D breast): 13.9 µM
- GI50 (CCRF-CEM leukemia): 0.0351 µM
- TGI (CCRF-CEM leukemia): 1.23 µM
- GI50 (SW-620 colon): 0.631 µM
- TGI (SW-620 colon): 20.1 µM
- GI50 (HT29 colon): 0.706 µM
- TGI (HT29 colon): 16.1 µM
- GI50 (HS 578T breast): 10.4 µM
- TGI (HS 578T breast): 29.8 µM
- GI50 (SF-295 CNS): 0.23 µM
- TGI (SF-295 CNS): 12.7 µM
- GI50 (SN12C renal): 4.61 µM
- TGI (SN12C renal): 17.4 µM
- GI50 (BT-549 breast): 6.82 µM
- TGI (BT-549 breast): 25.1 µM
- GI50 (OVCAR-4 ovarian): 14.2 µM
- TGI (OVCAR-4 ovarian): 31.9 µM
- GI50 (LOX IMVI melanoma): 0.487 µM
- TGI (LOX IMVI melanoma): 1.9 µM
- GI50 (TK-10 renal): 17.6 µM
- TGI (TK-10 renal): 33.3 µM
- GI50 (UACC-62 melanoma): 1.81 µM
- TGI (UACC-62 melanoma): 15.4 µM
- GI50 (786-0 renal): 1.39 µM
- TGI (786-0 renal): 2.84 µM
- GI50 (HL-60(TB) leukemia): 1.63 µM
- TGI (HL-60(TB) leukemia): 7.5 µM
- GI50 (RXF 393 renal): 1.35 µM
- TGI (RXF 393 renal): 5.66 µM
- GI50 (NCI-H460 lung): 0.239 µM
- TGI (NCI-H460 lung): 1.39 µM
- GI50 (OVCAR-8 ovarian): 1.82 µM
- TGI (OVCAR-8 ovarian): 12 µM
- GI50 (NCI-H226 lung): 1.27 µM
- TGI (NCI-H226 lung): 3.2 µM
- GI50 (NCI-H522 lung): 0.442 µM
- TGI (NCI-H522 lung): 23 µM
- GI50 (SR leukemia): 0.307 µM
- TGI (SR leukemia): 2.39 µM
- GI50 (SK-MEL-28 melanoma): 2.56 µM
- TGI (SK-MEL-28 melanoma): 8.53 µM
